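All cell lines were grown in 96-well plates and treated with compound for 48 hours. GI50 is the concentration that inhibits growth by half.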 Activity calls are given as the source filed them. Rule as the data show it: active = GI50 up to about 1.1 µM and inactive = higher. *1 amine or outer side, *2 acyl side, *3 side chain or, on linkers, in order; H or OH if unused. Where a SMILES comes first, the peptide text is derived from it. [ ]: non-standard residue; d: D form. The star is where a group is joined. ξ: configuration not given here. X53 = CC(C)C[C@H](N[*:1])C1=N[C@H](C(=O)[*:2])CS1; Ile(3ξ) = CCC(C)[C@H](N)C(=O)O; Allyl(1,1-Me2) = C=CC(C)(C)*
Tests used:
Assay in all cases: growth of human tumour cells (NCI), 48 h
[1] = system: Hs-578T
[2] = system: BT-549
[3] = system: XF498
[4] = system: DMS-114
[5] = system: DMS-273
[6] = system: KM-20L2
[7] = system: DLD-1
[8] = system: HOP-18

Structure (SMILES)	GI50 [1]	GI50 [2]	further results
CNC(=O)C1(C#N)C(c2ccccc2)C(C#N)(C(=O)NC)C1c1ccccc1 (centres undefined)	> 100 µM (inactive)	–	–
FC(F)(F)c1ccc(C2=N/S(c3ccccc3)=N\C(c3ccc(C(F)(F)F)cc3)=N/S(c3ccccc3)=N\2)cc1 (centres undefined)	> 100 µM (inactive)	> 100 µM (inactive)	–
Nc1nc2cc3nc(N)c(N)nc3cc2nc1N	> 100 µM (inactive)	> 100 µM (inactive)	–
COc1ccc(CNC(=O)[C@H](Cc2ccc(O)cn2)NC(C)=O)cc1	> 100 µM (inactive)	> 100 µM (inactive)	–
NC(=S)C1=C(N)Oc2c(c(=O)oc3ccccc23)C1c1ccc(Br)cc1 (centres undefined)	–	> 100 µM (inactive)	–
O=C(/C=C/c1ccccc1)NC1C=Nc2ccc([N+](=O)[O-])cc2NC1=O (centres undefined)	–	–	GI50 [3]: > 100 µM (inactive); GI50 [4]: 15.8 µM (inactive); GI50 [5]: 21.6 µM (inactive); GI50 [6]: 23.3 µM (inactive); GI50 [7]: > 100 µM (inactive)
S=C(/N=c1/sc(Nc2ccccc2)nc2sc3c(c12)CCCC3)Nc1ccccc1	> 62.5 µM (inactive)	> 62.5 µM (inactive)	–
CC1(C)N=c2c(ncn2CCCO)=C(C(N)=O)N1	> 100 µM (inactive)	–	–
COc1c(Sc2c(SCSc3cnc4ccccc4c3Sc3cnc4ccccc4c3OC)cnc3ccccc23)cnc2ccccc12	52.2 µM (inactive)	54.5 µM (inactive)	–
COC1C=COC2(C)Oc3c(C)c(O)c4c(O)c(c(C5SCCS5)c(O)c4c3C2=O)NC(=O)/C(C)=C\C=CC(C)C(O)C(C)C(O)C(C)C(OC(C)=O)C1C (centres undefined)	13.4 µM (inactive)	3.84 µM (inactive)	–
COc1cc2cccc(/N=C\c3ccccc3Cl)c2cc1OC	–	–	GI50 [4]: 35.2 µM (inactive); GI50 [6]: > 100 µM (inactive); GI50 [7]: > 100 µM (inactive); GI50 [8]: > 100 µM (inactive)
CN(Cc1cccc2ccsc12)/N=C\c1ccc(Cl)cc1	> 100 µM (inactive)	> 100 µM (inactive)	–
CCN(CCCl)c1cc(CN(C)C)cc(NC(=O)c2cc(C(=O)Nc3cc(CN(C)C)cc(N(CC)CCCl)c3)n(C)n2)c1	0.197 µM (active)	–	–
S=C1NCCN1C(=S)NC1CCCCC1	21.2 µM (inactive)	21.4 µM (inactive)	–
Cc1cccc(NC(=O)CC(=O)N2N=C(N3c4ccccc4Sc4ccccc43)CC2c2ccccc2)c1 (centres undefined)	> 100 µM (inactive)	> 100 µM (inactive)	–
O=C1/C(=C/c2ccc(Cl)cc2)CSC/C1=C\c1ccc(Cl)cc1	–	2.21 µM (inactive)	–
Cc1cc(OCc2nnc3n2S(=O)(=O)c2ccccc2N3C)ccc1Cl	40.8 µM (inactive)	18.2 µM (inactive)	–
N#Cc1nc(C2OC(COC(=O)c3ccccc3)C(OC(=O)c3ccccc3)C2OC(=O)c2ccccc2)oc1N (centres undefined)	–	–	GI50 [4]: 28.9 µM (inactive); GI50 [5]: 26.4 µM (inactive); GI50 [6]: 39 µM (inactive); GI50 [7]: 37.2 µM (inactive); GI50 [8]: 10.7 µM (inactive)
CCOC(=O)C(C(=O)Cc1ccccc1)c1ccccc1 (centres undefined)	–	–	GI50 [3]: > 100 µM (inactive); GI50 [6]: > 100 µM (inactive); GI50 [7]: > 100 µM (inactive)
Oc1cc(O)cc(-c2nc3cc(F)ccc3s2)c1	–	20.2 µM (inactive)	–
CC(=O)c1ccc(NC(=O)C(=O)Nn2c(S)nc3ccccc3c2=O)cc1	–	–	GI50 [3]: > 100 µM (inactive); GI50 [4]: > 100 µM (inactive); GI50 [6]: > 100 µM (inactive); GI50 [7]: > 100 µM (inactive); GI50 [8]: > 100 µM (inactive)
COc1cc2c(cc1OC)CCc1cc(OC)c(OC)cc1CC2	> 100 µM (inactive)	> 100 µM (inactive)	–

Structure (SMILES)	GI50 [1]	GI50 [2]	further results
COc1ccc(C(=O)/C=C/c2ccc(OCC(=O)O)cc2)cc1	70.1 µM (inactive)	38.6 µM (inactive)	–
O=c1cc(NNc2ccccc2)[nH]c(=S)[nH]1	> 100 µM (inactive)	97.5 µM (inactive)	–
COc1cc(C)c(S(=O)(=O)N(CCCN)OCCCN)c(C)c1C	23 µM (inactive)	26.6 µM (inactive)	–
CC(C)N1CCN(c2ccc(OCC3COC(Cn4cncn4)(c4ccc(Cl)cc4Cl)O3)cc2)CC1 (centres undefined) [TERCONAZOLE]	12.2 µM (inactive)	14.4 µM (inactive)	–
CC(C)(C)N/N=C(\C(=O)NC1=C(Cl)C(=O)c2ccccc2C1=O)C1C=CCS1(=O)=O (centres undefined)	19.5 µM (inactive)	12.4 µM (inactive)	–
CN(C)C1C(CO)OC(n2cnc3c(N)ncnc32)C1O (centres undefined)	> 100 µM (inactive)	> 100 µM (inactive)	–
O=C(O)Cc1ccc([N+](=O)[O-])cc1[N+](=O)[O-]	70.6 µM (inactive)	> 100 µM (inactive)	–
O=C(CC1(O)C(=O)Nc2ccccc21)c1ccccc1Cl (centres undefined)	–	–	GI50 [3]: > 100 µM (inactive); GI50 [4]: > 100 µM (inactive); GI50 [5]: > 100 µM (inactive); GI50 [6]: > 100 µM (inactive); GI50 [7]: > 100 µM (inactive)
CCOC(=O)c1[nH]c2cc(OC)c(OC)cc2c1CN(C)C	–	–	GI50 [4]: > 100 µM (inactive); GI50 [6]: > 100 µM (inactive); GI50 [7]: > 100 µM (inactive)
COc1ccc(-c2oc3c(OC)c(OC)cc(O)c3c(=O)c2OC)cc1	58.3 µM (inactive)	> 100 µM (inactive)	–
O=C(CCCCCCCCC(=O)OCC1OC(n2cnc3c(=O)[nH]cnc32)C(O)C1O)OCC1OC(n2cnc3c(=O)[nH]cnc32)C(O)C1O (centres undefined)	–	–	GI50 [3]: > 100 µM (inactive); GI50 [4]: > 100 µM (inactive); GI50 [5]: > 100 µM (inactive); GI50 [6]: > 100 µM (inactive); GI50 [7]: > 100 µM (inactive); GI50 [8]: > 100 µM (inactive)
Brc1ccc(-c2[nH]c3ccccc3c2/N=N\c2ccccc2)cc1	20.7 µM (inactive)	22 µM (inactive)	–
Cc1ccc(C2=Nc3ccccc3[S+]([O-])C(c3ccc4c(c3)OCO4)C2)cc1 (centres undefined)	–	–	GI50 [3]: 16.5 µM (inactive); GI50 [5]: 28.6 µM (inactive); GI50 [6]: 17.4 µM (inactive); GI50 [7]: 12.3 µM (inactive); GI50 [8]: > 100 µM (inactive)
C=CCNC(=S)N1CC(C)C(=O)Nc2ccccc21 (centres undefined)	–	–	GI50 [3]: > 100 µM (inactive); GI50 [4]: > 100 µM (inactive); GI50 [5]: > 100 µM (inactive); GI50 [6]: > 100 µM (inactive)
COc1cc(C(=O)/C=C/c2ccc(OCC#N)cc2)cc(OC)c1OC	25.1 µM (inactive)	17.7 µM (inactive)	–
CN(C)C1C(O)=C(C(=O)NCN2CCCC2)C(=O)C2(O)C(O)=C3C(=O)c4c(O)cccc4C(C)(O)C3CC12 (centres undefined)	> 100 µM (inactive)	> 100 µM (inactive)	–
N#CCc1ccc(C(C#N)/C(CCCC(=O)Nc2cccc([N+](=O)[O-])c2)=N\NC(=O)NN)cc1 (centres undefined)	–	–	GI50 [4]: > 100 µM (inactive); GI50 [5]: > 100 µM (inactive); GI50 [6]: > 100 µM (inactive); GI50 [7]: > 100 µM (inactive); GI50 [8]: > 100 µM (inactive)
Fc1ccc(C(OCCN2CC3CCC(C2)N3CCCc2ccccc2)c2ccc(F)cc2)cc1	3.25 µM (inactive)	12.4 µM (inactive)	–
C=CCn1c(-c2ccc(/N=N/Nc3ccc(-c4n[nH]c(=S)n4CC=C)cc3)cc2)n[nH]c1=S	5.15 µM (inactive)	2.3 µM (inactive)	–
CC(=O)c1cccc(NC(=O)/C(=N\NC(C)(C)C)c2c(O)c3ccccc3oc2=O)c1	–	–	GI50 [3]: > 100 µM (inactive); GI50 [4]: > 100 µM (inactive); GI50 [5]: > 100 µM (inactive); GI50 [6]: > 100 µM (inactive); GI50 [7]: > 100 µM (inactive); GI50 [8]: > 100 µM (inactive)
N#Cc1c(NC(=S)Nc2ccccc2)sc2c1CCCC2	> 100 µM (inactive)	> 100 µM (inactive)	–
COc1ccc(C(=O)/C=C/c2ccc(OCCCCCCCCCCOc3ccc(/C=C/C(=O)c4ccc(OC)cc4)cc3)cc2)cc1	> 100 µM (inactive)	–	–

Structure (SMILES)	GI50 [1]	GI50 [2]	further results
C/C(=N/NC(=S)N1CC2CCC(CC2)C1)c1cnccn1	2.42 µM (inactive)	0.993 µM (active)	–
O=C1NC(=S)N(c2ccccc2)C1=O	> 100 µM (inactive)	–	–
O=[N+]([O-])c1ccc2oc(=N/c3ccccc3)/c(=N\c3ccccc3)[nH]c2c1	19.7 µM (inactive)	–	–
O=C1/C(=C/c2cccc(Br)c2)CSC/C1=C\c1cccc(Br)c1	–	2.13 µM (inactive)	–
Cc1ncc([N+](=O)[O-])n1CCNC(=O)CCCCCn1ccnc1[N+](=O)[O-]	> 100 µM (inactive)	> 100 µM (inactive)	–
Cc1nc2ccc(NC3OC(CO)C(O)C(O)C3O)cc2c(=O)n1-c1ccccc1 (centres undefined)	> 100 µM (inactive)	> 100 µM (inactive)	–
COC(=O)c1c2c(cc3c1CC1(Cc4ccccc4C1=O)C3)CCC2 (centres undefined)	50 µM (inactive)	–	–
COc1cc(/C=C2/SC(c3ccccc3)N(c3ccccc3Cl)C2=O)cc(OC)c1OC (centres undefined)	30 µM (inactive)	28.2 µM (inactive)	–
CN1N(c2ccccc2)C(=O)C2=NC=C(C#N)C(=N)C21C (centres undefined)	–	> 100 µM (inactive)	–
C=CC(C)(C)OC[C@@H]1NC(=O)CNC(=O)[C@@H]2CCCN2C(=O)[C@H](C(C)CC)NC(=O)[C@@H]2CSC(=N2)[C@H](CC(C)C)NC1=O (some centres undefined) (cyclo(GS(Allyl(1,1-Me2))[X53][Ile(3ξ)]P))	23.2 µM (inactive)	23.1 µM (inactive)	–
CCCC(CCN)(CCN)[N+](=O)[O-]	> 100 µM (inactive)	> 100 µM (inactive)	–
O=C1C=C(Nc2cccnc2)c2ccccc2C1=O	2.4 µM (inactive)	1.44 µM (inactive)	GI50 [4]: 2.02 µM (inactive); GI50 [5]: 6.81 µM (inactive); GI50 [6]: > 43.2 µM (inactive); GI50 [7]: 5.11 µM (inactive); GI50 [8]: 10.3 µM (inactive)
CC(=O)OC1C(Oc2c(C)cc3c(c2O)[C@@H](C)CC[C@@H]3[C@@H](C)CCC=C(C)C)OCC(O)C1O (some centres undefined)	21.5 µM (inactive)	–	–
CCCCCCC(=O)OC[n+]1cccc(-c2c(COC(=O)NC(C)C)c(COC(=O)NC(C)C)c3n2CCC3)c1	> 57.4 µM (inactive)	37.8 µM (inactive)	–
COc1cc(C(=O)NO)ccc1O	–	–	GI50 [4]: > 100 µM (inactive); GI50 [5]: > 100 µM (inactive); GI50 [6]: > 100 µM (inactive); GI50 [7]: > 100 µM (inactive); GI50 [8]: > 100 µM (inactive)
C[N+](C)([O-])Cc1cccc(NC(=O)c2ccc(C(=O)Nc3cccc(C[N+](C)(C)[O-])c3)cc2)c1	–	> 100 µM (inactive)	–
Nc1ccn(C2OC(COP(=O)(O)O)C(O)C2O)c(=O)n1 (centres undefined)	–	> 100 µM (inactive)	–
COc1cc(C(c2c(O)c3ccccc3oc2=O)c2c(O)c3ccccc3oc2=O)cc(Br)c1O	20.2 µM (inactive)	17 µM (inactive)	–
CN(C)c1n/c(=N/c2ccc3ccccc3c2)ss1	–	–	GI50 [4]: 9.06 µM (inactive); GI50 [5]: > 10 µM (inactive); GI50 [6]: 29.6 µM (inactive); GI50 [7]: 15.4 µM (inactive); GI50 [8]: 25.3 µM (inactive)
CCCC(=O)Nc1cc(/C=C/C(=O)N2C[C@@H]3C[C@]34C2=CC(=O)c2[nH]cc(C)c24)n(C)c1	0.668 µM (active)	0.29 µM (active)	–
CCCCCC[C@@H]1CCC2C(CO)[C@@H](O)CC[C@@H]2C1 (some centres undefined)	–	–	GI50 [3]: 24.7 µM (inactive); GI50 [4]: 19.6 µM (inactive); GI50 [5]: 20.2 µM (inactive); GI50 [6]: 18.4 µM (inactive); GI50 [7]: 18.8 µM (inactive); GI50 [8]: 22.4 µM (inactive)
O=c1[nH]nc(-c2ccccc2)n1/N=C/c1ccccc1O	29.3 µM (inactive)	> 100 µM (inactive)	–

From ChEMBL document CHEMBL1201862, “PubChem BioAssay data set” (2004)
